Data from PMC4229968, “The Inhibition of the Components from Shengmai Injection towards UDP-Glucuronosyltransferase” (Evidence-based Complementary and Alternative Medicine : eCAM, 2014).

Legend:
Type in all cases: in vitro ADME
UGT1A1 = molecular target: T1, UGT1A1 (Homo sapiens, UniProt P22309); assay: Recombinant UGT1A1-catalyzed 4-MU glucuronidation inhibition; conditions: pH 7.4, probe 4-methylumbelliferone (4-MU), UGT1A1, 100 μM of compound, 4-MU substrate, read-out: residual activity
T1 construct: purchased BD Gentest Corp. (Woburn, MA, USA); host or cells: baculovirus-infected insect cells
T1 sequence (P22309 26-533): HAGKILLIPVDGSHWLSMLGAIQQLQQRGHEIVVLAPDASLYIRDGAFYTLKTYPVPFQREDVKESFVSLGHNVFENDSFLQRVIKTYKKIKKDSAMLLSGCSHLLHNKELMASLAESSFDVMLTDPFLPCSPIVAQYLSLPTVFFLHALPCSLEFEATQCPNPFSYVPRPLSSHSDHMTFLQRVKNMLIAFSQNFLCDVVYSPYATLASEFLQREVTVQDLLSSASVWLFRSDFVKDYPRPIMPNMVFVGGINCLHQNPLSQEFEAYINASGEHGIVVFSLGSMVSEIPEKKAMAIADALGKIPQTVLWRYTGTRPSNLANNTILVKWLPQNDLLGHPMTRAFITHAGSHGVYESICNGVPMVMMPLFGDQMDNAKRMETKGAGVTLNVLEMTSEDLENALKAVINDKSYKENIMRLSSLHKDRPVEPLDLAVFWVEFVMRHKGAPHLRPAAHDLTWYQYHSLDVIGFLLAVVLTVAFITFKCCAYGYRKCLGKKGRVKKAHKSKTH
Excerpt: (§1) 4-Methylumbelliferone (4-MU), 4-methylumbelliferone-β-D-glucuronide (4-MUG), Tris-HCl, 7-hydroxycoumarin, and uridine-5′-diphosphoglucuronic acid (UDPGA) (trisodium salt) were purchased from Sigma-Aldrich (St. Louis, MO). Recombinant human UGT isoforms (UGT1A1, UGT1A3, UGT1A4, UGT1A6, UGT1A7, UGT1A8, UGT1A9, UGT1A10, UGT2B4, UGT2B7, and UGT2B15) expressed in baculovirus-infected insect cells were obtained from BD Gentest Corp. (Woburn, MA, USA). Ophiopogonin D (OD), ophiopogonin D′ (OD′), methylophiopogonanone A (MA), methylophiopogonanone B (MB), and ruscorectal (RU) were purchased from Sichuan Weikeqi Biotechnology Company (Chengdu, Sichuan, China). The purity of these compounds was above 95%. All other reagents were of HPLC grade or of the highest grade commercially available.
(§2) 4-MU, the nonspecific probe substrate for all the UGT isoforms except UGT1A4, was used in the present study to initially screen the inhibition potential of maidong's components towards UGT isoforms as previously reported. In brief, the incubation system (total volume = 200 μL) consisted of recombinant UGTs, 5 mM UDPGA, 5 mM MgCl2, 50 mM Tris-HCl (pH = 7.4), and 4-MU in the absence or presence of different concentrations of maidong's components. The compounds were dissolved in DMSO, and the final concentration of DMSO was below 0.5% (v/v). The used incubation time and protein concentration were previously determined to ensure the reaction rate within the linear range. The 4-MU concentration was equal to known K m or S 50 values for each UGT isoform. After 5 min preincubation at 37°C, the incubation reaction was initiated via adding UDPGA to the mixture system. The reactions were quenched by adding 100 μL acetonitrile with 7-hydroxycoumarin (100 μM) as internal standard. Centrifuged at 20000 ×g for 10 min, an aliquot of supernatant was transferred to an autoinjector vial for HPLC analysis. The HPLC system (Shimadzu, Kyoto, Japan) contained a SCL-10A system controller, two LC-10AT pumps, a SIL-10A autoinjector, and a SPD-10AVP UV detector. Chromatographic separation was carried out using a C18 column (4.6 × 200 mm, 5 μm, Kromasil) at a flow rate of 1 mL/min and UV detector at 316 nm. The mobile phase consisted of acetonitrile (A) and H2O containing 0.5% (v/v) formic acid (B). The following gradient condition was used: 0–15 min, 95–40% B; 15–20 min, 10% B; 20–30 min, 95% B.

UGT1A8 = molecular target: T2, UGT1A8 (Homo sapiens, UniProt Q9HAW9); assay: Recombinant UGT1A8-catalyzed 4-MU glucuronidation inhibition; conditions: for activity at 100 µM: UGT1A8, 100 μM of compound, 4-MU substrate, read-out: residual activity
T2 construct: purchased BD Gentest Corp. (Woburn, MA, USA); host or cells: baculovirus-infected insect cells
T2 sequence (Q9HAW9 26-530): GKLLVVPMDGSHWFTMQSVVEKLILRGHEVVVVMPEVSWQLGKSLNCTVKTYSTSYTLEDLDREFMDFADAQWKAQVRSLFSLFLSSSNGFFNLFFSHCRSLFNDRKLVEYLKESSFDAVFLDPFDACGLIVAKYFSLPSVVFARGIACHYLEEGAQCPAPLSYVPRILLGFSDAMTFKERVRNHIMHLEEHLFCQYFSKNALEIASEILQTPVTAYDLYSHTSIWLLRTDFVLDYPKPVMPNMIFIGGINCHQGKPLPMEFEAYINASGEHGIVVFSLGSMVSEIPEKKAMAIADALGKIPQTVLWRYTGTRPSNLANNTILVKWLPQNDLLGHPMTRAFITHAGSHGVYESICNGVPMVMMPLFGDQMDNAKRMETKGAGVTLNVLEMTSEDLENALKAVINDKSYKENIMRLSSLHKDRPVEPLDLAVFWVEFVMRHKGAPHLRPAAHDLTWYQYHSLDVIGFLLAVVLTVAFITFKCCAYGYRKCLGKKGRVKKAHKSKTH
Excerpt: as §1, §2
To determine the inhibition kinetic type and parameters (K i), the reaction velocity (V) was determined at multiple concentrations of maidong's components and 4-MU (or TFP). Dixon plot and Lineweaver-Burk plot were used to fit the data. The inhibition kinetic type was evaluated through determining the intersection point in the Dixon and Lineweaver-Burk plots.
K m value is the substrate concentration in which the velocity reached half of the maximum velocity (V max) of the reaction. K i value is the inhibition constant.

UGT1A9 = molecular target: T3, UGT1A9 (Homo sapiens, UniProt O60656); assay: Recombinant UGT1A9-catalyzed 4-MU glucuronidation inhibition; conditions: pH 7.4, probe 4-methylumbelliferone (4-MU), UGT1A9, 100 μM of compound, 4-MU substrate, read-out: residual activity
T3 construct: purchased BD Gentest Corp. (Woburn, MA, USA); host or cells: baculovirus-infected insect cells
T3 sequence (O60656 26-530): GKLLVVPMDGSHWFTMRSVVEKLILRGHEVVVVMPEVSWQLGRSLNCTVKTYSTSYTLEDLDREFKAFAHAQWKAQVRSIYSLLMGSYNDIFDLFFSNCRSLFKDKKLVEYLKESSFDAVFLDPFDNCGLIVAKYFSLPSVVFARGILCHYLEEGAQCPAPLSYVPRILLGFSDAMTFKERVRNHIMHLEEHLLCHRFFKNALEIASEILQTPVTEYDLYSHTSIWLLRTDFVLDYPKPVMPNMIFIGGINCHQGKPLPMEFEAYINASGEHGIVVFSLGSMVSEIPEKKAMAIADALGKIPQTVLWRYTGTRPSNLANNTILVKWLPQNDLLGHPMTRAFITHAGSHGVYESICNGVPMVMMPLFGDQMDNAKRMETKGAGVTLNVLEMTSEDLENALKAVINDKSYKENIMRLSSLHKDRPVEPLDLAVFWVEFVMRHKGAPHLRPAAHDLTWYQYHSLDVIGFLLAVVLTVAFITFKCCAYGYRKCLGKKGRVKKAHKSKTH
Excerpt: as §1, §2

[1] = human, pH 7.4, probe 4-methylumbelliferone (4-MU)

Compound	activity at 100 µM (UGT1A1) [%]	activity at 100 µM (UGT1A8; [1]) [%]	activity at 100 µM (UGT1A9) [%]	Ki (UGT1A8) [µM]	inhibition type (UGT1A8; UGT1A8, Dixon and Lineweaver-Burk plots)	inhibition at 100 µM (UGT1A8; human, pH 7.4, probe 4-methylumbelliferone (4-MU), UGT1A8, at 100 μM, read-out: inhibition percent) [%]
Cc1c(O)c(C)c2c(c1O)C(=O)[C@H](Cc1ccc3c(c1)OCO3)CO2 [MA, methylophiopogonanone A]	31.3 ± 1.3	20.5 ± 2.1	38.7			
COc1ccc(C[C@@H]2COc3c(C)c(O)c(C)c(O)c3C2=O)cc1 [MB, methylophiopogonanone B]	27.9 ± 11.1	85 ± 4.5	68.2 ± 1.5			
C[C@@H]1CC[C@@]2(OC1)O[C@H]1C[C@H]3[C@@H]4CC=C5C[C@@H](O)C[C@@H](O[C@@H]6O[C@H](C)[C@H](O)[C@H](O[C@@H]7OC[C@@H](O)[C@H](O)[C@H]7O)[C@H]6O[C@@H]6O[C@@H](C)[C@H](O)[C@@H](O)[C@H]6O)[C@]5(C)[C@H]4CC[C@]3(C)[C@H]1[C@@H]2C [OD, ophiopogonin D]	77.1 ± 3.8	17.3 ± 0.9	135 ± 1.5	40.1	competitively inhibited	82.7
C[C@@H]1CC[C@@]2(OC1)O[C@H]1C[C@H]3[C@@H]4CC=C5C[C@@H](O[C@@H]6O[C@H](CO)[C@@H](O)[C@H](O[C@@H]7OC[C@@H](O)[C@H](O)[C@H]7O)[C@H]6O[C@@H]6O[C@@H](C)[C@H](O)[C@@H](O)[C@H]6O)CC[C@]5(C)[C@H]4CC[C@]3(C)[C@H]1[C@@H]2C [OD′, ophiopogonin D′]	81 ± 12.6	18.9 ± 6.6	134 ± 2.1			
CC1CCC2(OC1)OC1CC3C4CC=C5CC(O)CC(O)C5(C)C4CCC3(C)C1C2C (stereo not drawn) [RU, ruscorectal]	41.5 ± 36.9	72 ± 3	110.7 ± 1.1			
